PMC11062922 (Nature Chemical Biology, 2023)

Biological target: T1, SYK (Homo sapiens, UniProt P43405)
T1 construct: endogenous in cells
Assay: Kinobeads two-dose competition binding: SYK
Conditions: read-out: Lestaurtinib Drugmatrix value, Gene Name SYK

## C[C@]12O[C@H](C[C@]1(O)CO)n1c3ccccc3c3c4c(c5c6ccccc6n2c5c31)CNC4=O [Lestaurtinib]
  potency estimated from few doses: 157 nM
